According to patent US20060142308A1, “Synergistic combination comprising roflumilast and formoterol” (Atlanta Pharma AG, priority 2002, published 2006):

Test system: ovalbumin (OVA)-sensitized and OVA-challenged Brown Norway rats
Assay: Late inflammatory airway reaction in the ovalbumin-sensitized/-challenged Brown-Norway rat (BAL fluid eosinophils, total cells, protein)
Format: in vivo
Settings: for Mean % Inhibition of Eosinophils: BAL fluid 48 h after OVA challenge; for Mean % Inhibition of Eosinophils / Mean % Inhibition of Protein: drug 1 h before challenge, p.o., Roflumilast 1.0, Formoterol 3.0, combination 1.0 + 3.0 μmol/kg; for Mean % Inhibition of Protein: cell-free BAL fluid 48 h after OVA challenge
Method: Late Inflammatory Airway Reaction in the Ovalbumin-Sensitized/-Challenged Brown-Norway Rat
Anti-inflammatory activity of Roflumilast and formoterol was determined in ovalbumin (OVA)-sensitized and OVA-challenged Brown Norway rats. Sensitization was done by simultaneous injection of Bordetella pertussis suspension i.p. and OVA/AHG suspension s.c. on day 1, 14 and 21. 28 days after start of sensitization, conscious Brown-Norway rats were challenged by inhalation of the aerosolized OVA solution for 1 h (˜20 ml/h). Non-challenged, only sensitized animals were used as baseline control. The drugs (thoroughly mixed with lactose) or the placebo control (lactose) were administered intratracheally (i.t.) as dry powders 1 h before OVA-challenge. 48 h later, OVA-challenged or non-challenged animals were anaesthetized and bronchoalveolar lavage (BAL) was performed using 3×4 ml BAL buffer per animal. The number of total cells and eosinophils in the BAL fluid, and the concentration of protein in the cell-free BAL fluid were determined. Drug-induced relative changes were calculated and statistically analyzed by the Jonckheere Terpstra test.

Structure (SMILES) | effects on total cell and eosinophil influx into alveolar space and protein levels in BAL fluid (3 μmol/kg i.t., data failed to reach significance) | Mean % Inhibition of Eosinophils | Mean % Inhibition of Protein | effects on cell infiltration and protein accumulation (0.3 μmol/kg i.t.)
COc1ccc(CC(C)NCC(O)c2ccc(O)c(NC=O)c2)cc1 (stereo not drawn) [Formoterol] | exhibited inhibitory effects | 35% | 46% | –
O=C(Nc1c(Cl)cncc1Cl)c1ccc(OC(F)F)c(OCC2CC2)c1 [Roflumilast] | – | 0% | 15% | did not show any significant effects
